Where two headings read alike, the source gives them in different places.

The text below walks through data of PMC7095208 (Nature, 2014).

The conditions of data set [1]: rat, in vivo, im.
Another data set deals with HCV NS5B RNA polymerase (Hepatitis C virus genotype 1b, UniProt P26663). Type of data set: biochemical.
Data set [2] deals with filoviruses. The following applies: cited from earlier work.
In data set [3] the test system is Rift Valley fever virus (ZH501). The settings on record: mouse, in vivo.
The subject of another data set is Marburg virus - Musoke. Type of data set: cell-based.
Another data set deals with human lymphocytes. The settings on record: 787 µM.
A short description of data set [4]: in vivo. The settings on record: cynomolgus monkey, im.
A short description of data set [5]: in vivo. The following applies: Sprague-Dawley, rat.
Data set [6] in a line: in vitro. The following applies: human, s9, half-life (t1/2).
Another data set has as its system HeLa cells. The settings on record: human.
Data set [7] in a line: in vitro. The following applies: dog, pH 1.
Data set [8] can be described thus: in vitro. The following applies: human.
For the next data set, the system named is RVFV ZH5018. Briefly: microbe, parasite or virus in culture. Format: cell-based. The following applies: Rift Valley fever virus, HeLa.
Data set [9] in a line: in vivo. The settings on record: mouse, iv.
Another data set concerns the target hERG ion channel (Homo sapiens, UniProt Q12809). Briefly: hERG ion channel current. Format: biochemical. The following applies: 30 µM; data not shown.
The next data set concerns MARV-Angola. The settings on record: guinea pig, in vivo.
A further data set deals with SUDV Boniface. Description: microbe, parasite or virus in culture. Type of data set: cell-based. The following applies: Sudan ebolavirus, HeLa.
The test system of another data set is JUNV Romero. Description: organism not typed. Format: cell-based, Junín virus. The following applies: HeLa.
A further data set has as its system MARV-Musoke. The following applies: guinea pig, in vivo.
The test system of another data set is EBOV Kikwit. Description: microbe, parasite or virus in culture. Format: cell-based, Ebola virus. The following applies: Zaire ebolavirus, HeLa.
A further data set concerns MARV Angola. Briefly: organism not typed. Type of data set: cell-based, Marburg virus. The settings on record: HeLa.
The next data set has as its system MARV Musoke. Briefly: organism not typed. Type of data set: cell-based, Marburg virus. The settings on record: HeLa.
Data set [10] concerns EBOV minigenome RNA replicon. Type of data set: cell-based, Ebola virus.
A further data set deals with MARV Ci67. Description: organism not typed. Format: cell-based, Marburg virus. The following applies: HeLa.
Data set [11] deals with filoviruses. The following applies: in vivo; cited from earlier work.

hERG ion channel, sequence (Q12809 whole entry): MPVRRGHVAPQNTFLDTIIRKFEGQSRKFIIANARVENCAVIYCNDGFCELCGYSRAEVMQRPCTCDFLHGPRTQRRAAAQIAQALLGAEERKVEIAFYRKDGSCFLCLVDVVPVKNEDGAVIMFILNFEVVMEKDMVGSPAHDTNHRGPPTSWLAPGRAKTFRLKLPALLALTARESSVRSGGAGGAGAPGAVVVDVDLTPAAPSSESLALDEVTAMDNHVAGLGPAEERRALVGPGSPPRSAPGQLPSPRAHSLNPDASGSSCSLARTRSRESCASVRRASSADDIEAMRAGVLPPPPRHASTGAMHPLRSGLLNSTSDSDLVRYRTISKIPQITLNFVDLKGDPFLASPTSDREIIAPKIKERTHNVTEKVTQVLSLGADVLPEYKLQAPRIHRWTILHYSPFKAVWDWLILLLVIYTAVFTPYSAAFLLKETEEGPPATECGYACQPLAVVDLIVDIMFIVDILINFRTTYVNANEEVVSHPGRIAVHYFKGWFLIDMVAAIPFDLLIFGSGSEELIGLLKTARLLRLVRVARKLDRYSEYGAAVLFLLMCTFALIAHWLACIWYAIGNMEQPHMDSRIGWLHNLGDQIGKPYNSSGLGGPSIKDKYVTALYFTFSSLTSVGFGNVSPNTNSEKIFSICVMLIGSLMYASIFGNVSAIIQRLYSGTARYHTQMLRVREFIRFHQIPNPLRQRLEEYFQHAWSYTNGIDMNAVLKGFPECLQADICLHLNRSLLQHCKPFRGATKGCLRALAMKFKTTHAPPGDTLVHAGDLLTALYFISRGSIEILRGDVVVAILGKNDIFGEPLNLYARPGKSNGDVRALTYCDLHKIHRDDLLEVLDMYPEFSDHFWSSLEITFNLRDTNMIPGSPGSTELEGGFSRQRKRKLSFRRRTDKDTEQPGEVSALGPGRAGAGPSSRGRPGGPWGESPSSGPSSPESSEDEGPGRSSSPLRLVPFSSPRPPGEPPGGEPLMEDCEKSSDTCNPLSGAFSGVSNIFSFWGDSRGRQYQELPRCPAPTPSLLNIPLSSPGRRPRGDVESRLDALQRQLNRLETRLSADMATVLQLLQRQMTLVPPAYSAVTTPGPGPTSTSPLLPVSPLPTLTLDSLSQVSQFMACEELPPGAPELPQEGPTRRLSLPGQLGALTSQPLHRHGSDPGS
HCV NS5B RNA polymerase, sequence (P26663 2420-2989 limits assumed): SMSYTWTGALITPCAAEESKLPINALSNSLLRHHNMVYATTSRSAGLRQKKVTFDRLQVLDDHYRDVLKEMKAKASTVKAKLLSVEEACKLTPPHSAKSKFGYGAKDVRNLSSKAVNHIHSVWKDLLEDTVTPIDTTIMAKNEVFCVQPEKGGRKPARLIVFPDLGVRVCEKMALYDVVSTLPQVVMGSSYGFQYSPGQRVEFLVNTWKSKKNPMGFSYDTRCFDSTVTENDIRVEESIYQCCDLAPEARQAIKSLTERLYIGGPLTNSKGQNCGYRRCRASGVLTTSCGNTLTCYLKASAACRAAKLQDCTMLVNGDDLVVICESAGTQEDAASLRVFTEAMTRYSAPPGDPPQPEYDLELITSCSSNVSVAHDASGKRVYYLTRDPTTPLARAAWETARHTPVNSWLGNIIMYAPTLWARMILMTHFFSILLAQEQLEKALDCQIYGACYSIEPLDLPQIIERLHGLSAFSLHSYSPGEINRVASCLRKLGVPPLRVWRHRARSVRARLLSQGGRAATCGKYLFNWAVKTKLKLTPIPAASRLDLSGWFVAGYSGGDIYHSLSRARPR

Consider `Nc1ncnc2c([C@@H]3N[C@H](COP(=O)(O)OP(=O)(O)OP(=O)(O)O)[C@@H](O)[C@H]3O)c[nH]c12` [BCX4430-TP], for which the “half-life in the liver” value in [1] worked out at 372 min. Also, the “RNA chain synthesis by HCV RNA polymerase” value on HCV NS5B RNA polymerase is “induces premature termination”.

Consider `NC(=O)c1ncn([C@@H]2O[C@H](CO)[C@@H](O)[C@H]2O)n1` [ribavirin], for which, in the data set on filoviruses [2], the activity against filoviruses entry was “not active”.

Broadly, the half-life is how long it takes for the measured level to halve. Higher therefore signals slow loss. In general, EC50 refers to the concentration giving half of the maximal effect. In general, EC90 refers to the point of the concentration-response curve where the effect stands at 90%. Lower therefore signals an effect from little substance. In the case of `Nc1ncnc2c([C@@H]3N[C@H](CO)[C@@H](O)[C@H]3O)c[nH]c12` [BCX4430, (2S,3S,4R,5R)-2-(4-amino-5H-pyrrolo[3,2-d]pyrimidin-7-yl)-5-(hydroxymethyl)pyrrolidine-3,4-diol], in data set [3], the “protection against lethal Rift Valley fever virus challenge” value is on record as “protected”. Further, the “production of infectious MARV virus” value in the data set with Marburg virus - Musoke is on record as “no detectable infectious MARV virus”. The chromosomal aberrations result in the data set on human lymphocytes is recorded as “no detectable chromosomal aberrations”. Further, the half-life in the data set “in vivo [4]” is below 5 min; in “in vivo [5]”, below 5 min; in “in vitro [6]”, above 54 min; in “in vivo [9]”, below 5 min. Further, the CC50 was 242 µM in the data set with HeLa cells, above 296 µM in the data set “in vitro [7]” and above 296 µM in the data set “in vitro [8]”. The EC50 in the data set on RVFV ZH5018 is 41.6 µM; with SUDV Boniface it was 3.4 µM; with JUNV Romero, 42.2 µM; in the data set on EBOV Kikwit it was 11.8 µM; with MARV Angola, 5 µM; in the data set on MARV Musoke, 4.4 µM. This compound also had a 50% effective concentration (EC50) in the data set with MARV Ci67 of 6.7 µM. For the same compound, the EC90 with RVFV ZH5018 is 98 µM; in the data set on SUDV Boniface, 10.3 µM; in the data set with JUNV Romero, above 100 µM; with EBOV Kikwit it was 25.4 µM; in the data set with MARV Angola it was 12.3 µM; in the data set with MARV Musoke, 10.5 µM. This compound showed an EC90 in the data set with MARV Ci67 of 16.1 µM. In addition, at hERG ion channel, the “inhibition of hERG ion channel current” value is on record as “did not inhibit”. Besides, the post-exposure protection result in the data set on MARV-Angola and in the data set with MARV-Musoke was “significant post-exposure protection” throughout. Besides, the protection result with MARV-Angola is recorded as “protected”. In addition, the animals surviving in the data set on MARV (Musoke variant) (cynomolgus monkey, in vivo) is 83%; in the data set with MARV (Musoke variant) (n = 6), “All animals”. The “haemorrhagic disease manifestations (PT, aPTT, serum AST, bilirubin) vs vehicle” value in the data set with MARV (Musoke variant) (cynomolgus monkey, in vivo) is listed as “ameliorated”. In addition, the “serum MARV burden” value in the data set with MARV (Musoke variant) (cynomolgus monkey, in vivo) was “significantly and substantially reduced”. Also, the tolerability result in the data set on MARV (Musoke variant) (cynomolgus monkey, in vivo) was “well tolerated”. Also, the “incorporation of BCX4430-MP into human RNA or DNA” value in the data set on human RNA or DNA is “no evidence of BCX4430-MP incorporation”. The “GFP expression in EBOV minigenome replicon assay” value in [10] is given as “reduces expression of green fluorescent protein”.

As to `Nc1nccc2c1ncn2C1C=C(CO)C(O)C1O` (stereo not shown) [c^3-Npc A, 3-deazaneplanocin A], in the data set with filoviruses [11], the “protection against filoviruses in rodents” value is reported as “high-degree of protection”.

As to `NC(=O)c1nc(F)c[nH]c1=O` [T-705, favipiravir], the “protection against filoviruses in rodents” value in the data set with filoviruses [11] is given as “high-degree of protection”.
